How the values were obtained:
[1] = test system: RLS subjects
Description: This was the first clinical study in which rasagiline was administered to RLS subjects. The dosage regimen of 1 mg/day rasagiline was chosen based on the optimal dosage regimen for the symptomatic treatment of PD. […] Therefore, in the event that a subject could not tolerate the 1 mg daily dose of rasagiline, a daily dose of 0.5 mg rasagiline was permitted. Rasagiline was administered orally as a tablet. Both the 1 mg and 0.5 mg rasagiline tablets were beveled round tablets, flat, white to off-white, scored on one side, plain on the other side. Teva Pharmaceutical Industries Ltd. was responsible for the manufacture and primary packaging of study medications according to current Good Manufacturing Practice (cGMP) principles and guidelines applicable to investigational medicinal products.
The Sleep Scale is a 12-item scale that provides a comprehensive view across almost all dimensions of sleep including daytime somnolence, sleep disturbance, sleep adequacy and sleep quantity. The investigator scored subjects on this scale at the baseline and Week 4, and 8 visits. The change from baseline to each post-baseline study visit was calculated as a secondary efficacy endpoint. (Hays, R. D. & Steward, A. L. (1992). Sleep measures. In A. L. Stewart & J. E. Ware (eds.), Measuring functioning and well-being: The Medical Outcomes Study approach (pp. 235-259), Durham, NC: Duke University Press.
N is the number of participants in the study. A low score indicates the absence of problems and a high score indicates a very severe problem.

[2] = test system: old rats with periodic hindlimb movements; settings: daily treatment; 3 consecutive nights beginning 7 days after onset; vs vehicle-treated rats
Description: In a group of old rats 16-20 months, sleep-wake behavior is recorded and hindlimb movements are detected by means of a magneto-inductive device during two 12-h light periods (Baier P. C. et al., Assessment of spontaneously occurring periodic limb movements in sleep in the rat, J. Neurol. Sci. 2002; 198(1-2): 71-77). Periodic hindlimb movements (PHLM) during nonrapid eye movement sleep (NREM) are identified according to modified human criteria in some of the rats, which are then selected for the rasagiline study. Half the rats are treated daily with rasagiline while the other half receive vehicle. Incidence of PHLM is determined for 3 consecutive nights, beginning 7 days after onset of treatment.

[3] = test system: patients with moderate to severe primary Restless Legs Syndrome; assay: Placebo-controlled, double-blind, randomized clinical test in primary RLS (Example 8)
[4] = VISIT WEEK 8, N=1, rasagiline 1 mg/day oral

C#CCN[C@@H]1CCc2ccccc21 [rasagiline, R-(+)-N-propargyl-1-aminoindan]
Optimal Sleep (Absolute Change) Mean [1, 4]: 0.00 | Optimal Sleep (Absolute Change) Median [1, 4]: 0.00 | Optimal Sleep (Percent Change) Mean [1, 4]: 0.00% | Optimal Sleep (Percent Change) Median [1, 4]: 0.00% | Optimal Sleep Scale Mean [1, 4]: 1.00 | Optimal Sleep Scale Median [1, 4]: 1.00 | Short of Breath Scale Mean [1, 4]: 0.00 | Short of Breath Scale Median [1, 4]: 0.00 | Sleep Adequacy (Absolute Change) Mean [1, 4]: 40.00 | Sleep Adequacy (Absolute Change) Median [1, 4]: 40.00 | Sleep Adequacy (Percent Change) Mean [1, 4]: 66.67% | Sleep Adequacy (Percent Change) Median [1, 4]: 66.67% | Sleep Adequacy Mean [1, 4]: 100.00 | Sleep Adequacy Median [1, 4]: 100.00 | Sleep Disturbance (Absolute Change) Mean [1, 4]: −16.25 | Sleep Disturbance (Absolute Change) Median [1, 4]: −16.25 | Sleep Disturbance (Percent Change) Mean [1, 4]: −43.33% | Sleep Disturbance (Percent Change) Median [1, 4]: −43.33% | Sleep Disturbance Scale Mean [1, 4]: 21.25 | Sleep Disturbance Scale Median [1, 4]: 21.25 | Sleep Problems Index I (Absolute Change) Mean [1, 4]: −16.67 | Sleep Problems Index I (Absolute Change) Median [1, 4]: −16.67 | Sleep Problems Index I (Percent Change) Mean [1, 4]: −100.00% | Sleep Problems Index I (Percent Change) Median [1, 4]: −100.00% | Sleep Problems Index I Mean [1, 4]: 0.00 | Sleep Problems Index I Median [1, 4]: 0.00 | Sleep Problems Index II (Absolute Change) Mean [1, 4]: −16.11 | Sleep Problems Index II (Absolute Change) Median [1, 4]: −16.11 | Sleep Problems Index II (Percent Change) Mean [1, 4]: −58.00% | Sleep Problems Index II (Percent Change) Median [1, 4]: −58.00% | Sleep Problems Index II Mean [1, 4]: 11.67 | Sleep Problems Index II Median [1, 4]: 11.67 | Sleep Quantity (Absolute Change) Mean [1, 4]: 0.00 | Sleep Quantity (Absolute Change) Median [1, 4]: 0.00 | Sleep Quantity (Percent Change) Mean [1, 4]: 0.00% | Sleep Quantity (Percent Change) Median [1, 4]: 0.00% | Sleep Quantity (raw score) Mean [1, 4]: 7.00 | Sleep Quantity (raw score) Median [1, 4]: 7.00 | Sleep Short of Breath (Absolute Change) Mean [1, 4]: 0.00 | Sleep Short of Breath (Absolute Change) Median [1, 4]: 0.00 | Sleep Snoring (Absolute Change) Mean [1, 4]: 20.00 | Sleep Snoring (Absolute Change) Median [1, 4]: 20.00 | Sleep Snoring (Percent Change) Mean [1, 4]: 25.00% | Sleep Snoring (Percent Change) Median [1, 4]: 25.00% | Sleep Somnolence (Absolute Change) Mean [1, 4]: 0.00 | Sleep Somnolence (Absolute Change) Median [1, 4]: 0.00 | Sleep Somnolence (Percent Change) Mean [1, 4]: 0.00% | Sleep Somnolence (Percent Change) Median [1, 4]: 0.00% | Snoring Scale Mean [1, 4]: 100.00 | Snoring Scale Median [1, 4]: 100.00 | Somnolence Scale Mean [1, 4]: 13.33 | Somnolence Scale Median [1, 4]: 13.33 | improvement in the Sleep Problems Index II ([1]; by eight weeks, remaining subject): 58% | incidence of periodic hindlimb movements (PHLM) [2]: significantly fewer | IRLSSG values, change from starting value ([3]; 0.5 mg and 1 mg groups, in comparison with the placebo group): significant improvement | subjective symptoms (tingling, cramps and pain in the legs, restlessness, difficulties falling or remaining asleep) ([3]; end of treatment, both patient groups): either disappear or diminish to a tolerable minimum | hallucinations, somnolence, edema, nausea, vomiting or diarrhea ([3]; patient reports): does not or only to a very minimal extent causes | clinical improvement ([3]; patients in a moderate to severe stage of RLS): distinct clinical improvement | tolerability and safety ([3]; patients with moderate to severe RLS): well tolerated and safe

From patent US12310929B2, “Use of rasagiline for the treatment of restless legs syndrome” (TEVA PHARMACEUTICAL INDUSTRIES, LTD., priority 2006, dated 2025)
